PubChem BioAssay AID266 (DTP/NCI, 2004)
“And” between values parts separate entries of the source, which are not always exact repeats. Equal entries are not always repeated. Results filed as inconclusive are left out. Starred links: 1 amine or outer side, 2 acyl side, 3 side chain; linkers in the order of their positions; H or OH if unused. Positions of bridges follow the written chain, without caps; N, C: chain ends. Non-standard residues stand in square brackets, D forms with d. Residues, ends and D or L forms follow the SMILES beside them. Chains are numbered I, II in the order given. Actinocin(9to1) = Cc1c2oc3c(C)ccc(C(=O)[*:1])c3nc-2c(C(=O)[*:2])c(N)c1=O; aThr = C[C@H](O)[C@H](N)C(=O)O; NMeV = CN[C@H](C(=O)O)C(C)C; Sar = CNCC(=O)O

Test system: Nude mice, LX-1 lung xenograft intrarenal, tumor weight T/C
Test: NCI In Vivo Anticancer Drug Screen. Data for tumor model Human Lung LX-1 Xenograft (intrarenal inoculation) in NU/NU BALB/C (nude) mice
Details: endpoint: mean tumor weight change, higher = larger tumour
Method: The antitumor activity of compounds was measured in mice bearing transplantable tumors. Survival or tumor size were measured and the results are expressed as the measurement made in the treated group (T) divided by the measurement made in the vehicle treated control group (C). The tumor model used in this assay is Human Lung LX-1 Xenograft (intrarenal inoculation) in NU/NU BALB/C (nude) mice

[1] = dose: 150.0 mg/kg/injection, schedule: Q04DX003 (sc), vehicle: Klucel (hydroxypropylcellulose) (HPC)
[2] = dose: 300.0 mg/kg/injection, schedule: Q04DX003 (sc), vehicle: Klucel (hydroxypropylcellulose) (HPC)
[3] = dose: 600.0 mg/kg/injection, schedule: Q04DX003 (sc), vehicle: Klucel (hydroxypropylcellulose) (HPC)
[4] = dose: 300.0 mg/kg/injection, schedule: Q04DX003 (sc), vehicle: saline with Tween-80
[5] = dose: 600.0 mg/kg/injection, schedule: Q04DX003 (sc), vehicle: saline with Tween-80
[6] = dose: 1200.0 mg/kg/injection, schedule: Q04DX003 (sc), vehicle: saline with Tween-80
[7] = dose: 2400.0 mg/kg/injection, schedule: Q04DX003 (sc), vehicle: saline with Tween-80

Question: With `Nc1nc(Br)nc2c1ncn2C1CC(O)C(CO)O1` (stereo not given) as the molecule, how does the T/C (dose: 7.5 mg/kg/injection, schedule: Q03DX003 (ip), vehicle: saline) read?
Answer: 66 % of control

Question: What about the T/C (dose: 15.0 mg/kg/injection, schedule: Q03DX003 (ip), vehicle: saline) of the same molecule?
Answer: 77 % of control

Question: And the T/C (dose: 30.0 mg/kg/injection, schedule: Q03DX003 (ip), vehicle: saline)?
Answer: 72 % of control

Question: What about the T/C (dose: 60.0 mg/kg/injection, schedule: Q03DX003 (ip), vehicle: saline) of the same molecule?
Answer: 59 % of control

Question: And the T/C (dose: 120.0 mg/kg/injection, schedule: Q03DX003 (ip), vehicle: saline)?
Answer: 74 % of control

Question: Which T/C [1] does the source give for `CC(CN1CC(=O)NC(=O)C1)N1CC(=O)NC(=O)C1` (stereo not given) here?
Answer: 88 % of control

Question: And the T/C [2]?
Answer: 94 % of control

Question: And the T/C [3]?
Answer: 45 % of control

Question: For `O=c1cnn(C2OC(CO)C(O)C2O)c(=O)[nH]1` (stereo not given), which T/C (dose: 200.0 mg/kg/injection, schedule: Q01DX010 (sc), vehicle: saline) is on record?
Answer: 42 % of control

Question: And the T/C (dose: 400.0 mg/kg/injection, schedule: Q01DX010 (sc), vehicle: saline)?
Answer: 46 % of control

Question: And the T/C (dose: 800.0 mg/kg/injection, schedule: Q01DX010 (sc), vehicle: saline)?
Answer: 35 % of control

Question: Which results are given for `CCCC(=O)Oc1ccc(/C=N/NC(N)=S)nc1`?
Answer: T/C (dose: 100.0 mg/kg/injection, schedule: Q01DX010 (sc), vehicle: saline with Tween-80): 66 % of control; T/C (dose: 200.0 mg/kg/injection, schedule: Q01DX010 (sc), vehicle: saline with Tween-80): 42 % of control; T/C (dose: 400.0 mg/kg/injection, schedule: Q01DX010 (sc), vehicle: saline with Tween-80): 19 % of control

Question: With `CC1CCC(n2cnc3c(Cl)ncnc32)O1` (stereo not given) as the molecule, how does the T/C [2] read?
Answer: 81 % of control

Question: What does the source list for `O=Cc1ccc(C=O)c(Cl)c1`?
Answer: T/C [2]: 81 % of control; T/C [3]: 88 % of control; T/C (dose: 1200.0 mg/kg/injection, schedule: Q04DX003 (sc), vehicle: Klucel (hydroxypropylcellulose) (HPC)): 79 % of control; T/C (dose: 2400.0 mg/kg/injection, schedule: Q04DX003 (sc), vehicle: Klucel (hydroxypropylcellulose) (HPC)): 152 % of control

Question: What does the source list for `Nc1nnc[se]1`?
Answer: T/C (dose: 100.0 mg/kg/injection, schedule: Q04DX003 (sc), vehicle: saline with Tween-80): 82 % of control; T/C (dose: 200.0 mg/kg/injection, schedule: Q04DX003 (sc), vehicle: saline with Tween-80): 40 % of control; T/C (dose: 400.0 mg/kg/injection, schedule: Q04DX003 (sc), vehicle: saline with Tween-80): 30 % of control

Question: How did the T/C (dose: 37.5 mg/kg/injection, schedule: Q04DX003 (sc), vehicle: saline) turn out when `CCC1OC(OC)C=CC1=O` (stereo not given) was run?
Answer: 90 % of control

Question: And the T/C (dose: 75.0 mg/kg/injection, schedule: Q04DX003 (sc), vehicle: saline)?
Answer: 99 % of control

Question: With `C=C(C)C(=O)O[C@H]1CC2=C[C@@H](C[C@@]3(C)O[C@@H]3[C@H]3OC(=O)C(=C)[C@@H]31)OC2=O` as the molecule, how does the T/C (dose: 75.0 mg/kg/injection, schedule: Q04DX003 (sc), vehicle: Klucel (hydroxypropylcellulose) (HPC)) read?
Answer: 64 % of control

Question: What about the T/C [1] of the same molecule?
Answer: 91 % of control

Question: What about the T/C [2] of the same molecule?
Answer: 58 % of control

Question: Which results are given for `Nc1cc2[nH]cnc2c(=O)[nH]1`?
Answer: T/C (dose: 25.0 mg/kg/injection, schedule: Q01DX010 (sc), vehicle: saline): 75 % of control; T/C (dose: 50.0 mg/kg/injection, schedule: Q01DX010 (sc), vehicle: saline): 89 % of control

Question: Which results are given for `N[C@H](C(=O)O)[C@@H]1CC(Cl)=NO1`?
Answer: T/C (dose: 0.5 mg/kg/injection, schedule: Q01DX010 (sc), vehicle: saline): 44 % of control; T/C (dose: 2.0 mg/kg/injection, schedule: Q01DX010 (sc), vehicle: saline): 223 % of control and 82 % of control; T/C (dose: 2.0 mg/kg/injection, schedule: Q02DX005 (sc), vehicle: saline): 150 % of control; T/C (dose: 4.0 mg/kg/injection, schedule: Q02DX005 (sc), vehicle: saline): 227 % of control; T/C (dose: 8.0 mg/kg/injection, schedule: Q01DX010 (sc), vehicle: saline): 361 % of control; T/C (dose: 8.0 mg/kg/injection, schedule: Q02DX005 (sc), vehicle: saline): 159 % of control; T/C (dose: 16.0 mg/kg/injection, schedule: Q01DX010 (sc), vehicle: saline): 63 % of control; T/C (dose: 16.0 mg/kg/injection, schedule: Q02DX005 (sc), vehicle: saline): 253 % of control; T/C (dose: 32.0 mg/kg/injection, schedule: Q01DX010 (sc), vehicle: saline): 35 % of control; T/C (dose: 32.0 mg/kg/injection, schedule: Q02DX005 (sc), vehicle: saline): 68 % of control

Question: With `CN(C)c1ccc2c(NCCCCCCNc3ccnc4cc(N(C)C)ccc34)ccnc2c1` as the molecule, how does the T/C (dose: 37.5 mg/kg/injection, schedule: Q04DX003 (sc), vehicle: distilled water + Tween-80 + alcohol) read?
Answer: 122 % of control

Question: What about the T/C (dose: 75.0 mg/kg/injection, schedule: Q04DX003 (sc), vehicle: distilled water + Tween-80 + alcohol) of the same molecule?
Answer: 80 % of control

Question: What about the T/C (dose: 150.0 mg/kg/injection, schedule: Q04DX003 (sc), vehicle: distilled water + Tween-80 + alcohol) of the same molecule?
Answer: 75 % of control

Question: With `CC(/C=C/c1ccccc1)=Nc1ccccc1` as the molecule, how does the T/C [4] read?
Answer: 63 % of control

Question: What about the T/C [5] of the same molecule?
Answer: 108 % of control

Question: What about the T/C [6] of the same molecule?
Answer: 83 % of control

Question: What about the T/C [7] of the same molecule?
Answer: 100 % of control

Question: For `C/C=C(\C)c1cc(=O)c2c(C)cc3c(c2o1)C(=O)c1c(O)c(C2CC(C)(N(C)C)C(OC(C)=O)C(C)O2)cc(C2CC(N(C)C)C(O)C(C)O2)c1C3=O` (stereo not given), which T/C (dose: 0.63 mg/kg/injection, schedule: Q04DX003 (sc), vehicle: saline) is on record?
Answer: 68 % of control

Question: And the T/C (dose: 1.25 mg/kg/injection, schedule: Q04DX003 (sc), vehicle: saline)?
Answer: 48 % of control

Question: What about the T/C (dose: 2.5 mg/kg/injection, schedule: Q04DX003 (sc), vehicle: saline) of the same molecule?
Answer: 45 % of control

Question: And the T/C (dose: 5.0 mg/kg/injection, schedule: Q04DX003 (sc), vehicle: saline)?
Answer: 51 % of control

Question: What does the source list for `Cc1c2oc3c(C)ccc(C(=O)N[C@@H]4C(=O)N[C@H](C(C)C)C(=O)N5CCC[C@H]5C(=O)N(C)CC(=O)N(C)[C@@H](C(C)C)C(=O)O[C@H]4C)c3nc-2c(C(=O)N[C@@H]2C(=O)N[C@H](C(C)C)C(=O)N3CCC[C@H]3C(=O)N(C)CC(=O)N(C)[C@@H](C(C)C)C(=O)O[C@H]2C)c(N)c1=O` (I: [aThr][dV]P[Sar][NMeV] / II: [aThr][dV]P[Sar][NMeV]; ester I:1-I:C, II:1-II:C; linker I:N-II:N via Actinocin(9to1))?
Answer: T/C (dose: 50.0 micrograms/kg/injection, schedule: Q01DX010 (sc), vehicle: saline): 35 % of control; T/C (dose: 100.0 micrograms/kg/injection, schedule: Q01DX010 (sc), vehicle: saline): 11 % of control

Question: `COC1=C(OC)C(=O)C(SC/C=C(\C)CCCC(C)CCCC(C)CCCC(C)C)=CC1=O` (stereo not given) was tested. Which T/C (dose: 300.0 mg/kg/injection, schedule: Q04DX003 (ip), vehicle: saline with Tween-80) did it give?
Answer: 82 % of control

Question: And the T/C (dose: 600.0 mg/kg/injection, schedule: Q04DX003 (ip), vehicle: saline with Tween-80)?
Answer: 110 % of control

Question: What about the T/C (dose: 1200.0 mg/kg/injection, schedule: Q04DX003 (ip), vehicle: saline with Tween-80) of the same molecule?
Answer: 72 % of control

Question: `CC(=O)NC(Cc1ccc(F)cc1)C(=O)O` (stereo not given) was tested. Which T/C [4] did it give?
Answer: 112 % of control

Question: And the T/C [5]?
Answer: 71 % of control

Question: And the T/C [6]?
Answer: 91 % of control

Question: And the T/C [7]?
Answer: 107 % of control

Question: What does the source list for `COc1cccc2c1C(=O)c1c(O)c3c(c(O)c1C2=O)CC(O)(C(=O)CO)CC3OC1CC(N)C(O)C(C)O1` (stereo not given)?
Answer: T/C (dose: 50.0 mg/kg/injection, schedule: Q04DX003 (sc), vehicle: water): 86 % of control; T/C (dose: 100.0 mg/kg/injection, schedule: Q04DX003 (sc), vehicle: water): 103 % of control; T/C (dose: 200.0 mg/kg/injection, schedule: Q04DX003 (sc), vehicle: water): 90 % of control; T/C (dose: 400.0 mg/kg/injection, schedule: Q04DX003 (sc), vehicle: water): 103 % of control

Question: Which results are given for `CCNC(C)(C)C(SSS)c1ccco1` (stereo not given)?
Answer: T/C [1]: 82 % of control; T/C [2]: 84 % of control; T/C [3]: 76 % of control

Question: For `Nc1ccn([C@@H](C=O)O[C@@H](C=O)CO)c(=O)n1`, which T/C (dose: 200.0 mg/kg/injection, schedule: Q04DX003 (sc), vehicle: saline) is on record?
Answer: 108 % of control

Question: Which T/C (dose: 1.0 mg/kg/injection, schedule: Q04DX003 (sc), vehicle: water) does the source give for `CCC1=C[C@H]2CN(CCc3c([nH]c4ccccc34)[C@@](C(=O)OC)(c3cc4c(cc3OC)N(C)[C@H]3[C@@](O)(C(=O)NC)[C@H](OC(C)=O)[C@]5(CC)C=CCN6CC[C@]43[C@@H]65)C2)C1` here?
Answer: 30 % of control

Question: Which results are given for `[N-]=[N+]=[N-]`?
Answer: T/C (dose: 6.0 mg/kg/injection, schedule: Q04DX003 (ip), vehicle: water): 68 % of control; T/C (dose: 24.0 mg/kg/injection, schedule: Q04DX003 (ip), vehicle: water): 73 % of control

Question: What does the source list for `OCC(O)C(O)C(O)C(O)CO` (stereo not given)?
Answer: T/C (dose: 75.0 mg/kg/injection, schedule: Q04DX003 (ip), vehicle: saline): 108 % of control; T/C (dose: 600.0 mg/kg/injection, schedule: Q04DX003 (ip), vehicle: saline): 109 % of control; T/C (dose: 1200.0 mg/kg/injection, schedule: Q04DX003 (ip), vehicle: saline): 94 % of control

Question: `CC1CCC(NC(=O)N(CCCl)N=O)CC1` (stereo not given) was tested. Which T/C (dose: 3.13 mg/kg/injection, schedule: Q01DX010 (sc), vehicle: Klucel (hydroxypropylcellulose) (HPC)) did it give?
Answer: 67 % of control

Question: What about the T/C (dose: 6.25 mg/kg/injection, schedule: Q01DX010 (sc), vehicle: Klucel (hydroxypropylcellulose) (HPC)) of the same molecule?
Answer: 3 % of control
